According to PubChem BioAssay AID1919000 (Molecular Pharmacology Branch, DTP, NCI, 2023):
Values joined by “and” are separate entries in the source; they are usually repeats but may differ in a detail not shown here. Equal entries are not always repeated. Values belong to the compound of their own block, whether it stands above or below them.

System: 653999-131-R-J2-PDC complex spheroids, growth % test/control
Experiment: Anticancer human tumor 653999-131-R-J2-PDC patient-derived lung adenocarcinoma cell line growth inhibition [AhR]
Settings: for viability, T/C: stronger effect = lower value
How it was run: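 Complex tumor spheroids co-cultured with HUVEC and human MSC stroma; AhR antagonists tested in combination with standard-of-care and investigational agents. Top concentration at or near clinical Cmax (else 10 microM), half-log dilutions; growth expressed as percent test/control.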

[1] = curve of first compound, second compound 0.1 µM
[2] = curve of first compound, second compound 0.316 µM
[3] = curve of first compound, second compound 1 µM
[4] = curve of first compound, second compound 3.16 µM
[5] = curve of first compound, second compound 10 µM
[6] = second compound 0.1 µM, first compound 0.000316 µM
[7] = second compound 0.1 µM, first compound 0.001 µM
[8] = second compound 0.1 µM, first compound 0.00316 µM
[9] = second compound 0.1 µM, first compound 0.01 µM
[10] = second compound 0.1 µM, first compound 0.0316 µM
[11] = second compound 0.1 µM, first compound 0.1 µM
[12] = second compound 0.316 µM, first compound 0.000316 µM
[13] = second compound 0.316 µM, first compound 0.001 µM
[14] = second compound 0.316 µM, first compound 0.00316 µM
[15] = second compound 0.316 µM, first compound 0.01 µM
[16] = second compound 0.316 µM, first compound 0.0316 µM
[17] = second compound 0.316 µM, first compound 0.1 µM
[18] = second compound 1 µM, first compound 0.000316 µM
[19] = second compound 1 µM, first compound 0.001 µM
[20] = second compound 1 µM, first compound 0.00316 µM
[21] = second compound 1 µM, first compound 0.01 µM
[22] = second compound 1 µM, first compound 0.0316 µM
[23] = second compound 1 µM, first compound 0.1 µM
[24] = second compound 3.16 µM, first compound 0.000316 µM
[25] = second compound 3.16 µM, first compound 0.001 µM
[26] = second compound 3.16 µM, first compound 0.00316 µM
[27] = second compound 3.16 µM, first compound 0.01 µM
[28] = second compound 3.16 µM, first compound 0.0316 µM
[29] = second compound 3.16 µM, first compound 0.1 µM
[30] = second compound 10 µM, first compound 0.000316 µM
[31] = second compound 10 µM, first compound 0.001 µM
[32] = second compound 10 µM, first compound 0.00316 µM
[33] = second compound 10 µM, first compound 0.01 µM
[34] = second compound 10 µM, first compound 0.0316 µM
[35] = second compound 10 µM, first compound 0.1 µM
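Note: spheroids exposed to agents for seven days.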
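Throughout, for viability, T/C: 100% = DMSO vehicle control viability.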

IC50 (curve of compound): 14.6 nM and 22.1 nM and 9.27 nM
SMILES: CCc1c2c(nc3ccc(O)cc13)-c1cc3c(c(=O)n1C2)COC(=O)[C@]3(O)CC
viability, T/C (compound 0.000949 µM): 79% and 89.9% and 76.4%
viability, T/C (compound 0.003 µM): 75.3% and 80.9% and 76.6%
viability, T/C (compound 0.00949 µM): 54.4% and 59.1% and 45.1%
viability, T/C (compound 0.03 µM): 38.8% and 44.1% and 33.3%
viability, T/C (compound 0.0949 µM): 29.4% and 35.4% and 27.7%
viability, T/C (compound 0.3 µM): 20.6% and 19.6% and 16.8%

IC50 [1]: 36.7 nM
IC50 [2]: 27.7 nM
IC50 [3]: 24.5 nM
IC50 [4]: 22.9 nM
IC50 [5]: 21 nM
SMILES: CC[C@@]1(O)C(=O)OCc2c1cc1n(c2=O)Cc2cc3c(CN(C)C)c(O)ccc3nc2-1 + CC(CO)NC(=O)c1cc(-c2ccc(Cl)cc2)nn(-c2cnn(C)c2)c1=O
viability, T/C [6]: 94.8%
viability, T/C [7]: 97.8%
viability, T/C [8]: 94.9%
viability, T/C [9]: 79%
viability, T/C [10]: 52.2%
viability, T/C [11]: 38.1%
viability, T/C [12]: 93.2%
viability, T/C [13]: 94.4%
viability, T/C [14]: 97.4%
viability, T/C [15]: 79.1%
viability, T/C [16]: 46.8%
viability, T/C [17]: 31.3%
viability, T/C [18]: 111%
viability, T/C [19]: 96%
viability, T/C [20]: 99.1%
viability, T/C [21]: 80.7%
viability, T/C [22]: 40.6%
viability, T/C [23]: 32.3%
viability, T/C [24]: 85.9%
viability, T/C [25]: 92.3%
viability, T/C [26]: 95.3%
viability, T/C [27]: 69.8%
viability, T/C [28]: 43.6%
viability, T/C [29]: 31.4%
viability, T/C [30]: 90.5%
viability, T/C [31]: 95.3%
viability, T/C [32]: 83.7%
viability, T/C [33]: 65.9%
viability, T/C [34]: 41.3%
viability, T/C [35]: 32.3%

Second part, the compound before the results:

SMILES: Cc1ccccc1N=Nc1ccc(NC(=O)c2ccnn2C)c(C)c1
viability, T/C (compound 0.1 µM): 96.6% [middle of 19 runs]
viability, T/C (compound 1 µM): 95.3% [middle of 20 runs]
IC50 (compound alone, run of 06/14/2022): > 10000 nM

SMILES: COc1ccc([C@@H](O)c2cc(-c3ncnc4cc(N5CCOCC5)ccc34)c(F)cc2Cl)nn1
viability, T/C (compound 0.0316 µM): 112% and 97% and 106%
viability, T/C (compound 0.1 µM): 105% and 114% and 103%
viability, T/C (compound 0.316 µM): 100% and 91.4% and 81.3%
viability, T/C (compound 1 µM): 90.5% and 90.1% and 83.8%
viability, T/C (compound 3.16 µM): 66.2% and 61.9% and 69.9%
viability, T/C (compound 10 µM): 44.8% and 45.4% and 42.3%
IC50 (curve of compound): 7570 nM and 7280 nM and 7560 nM

SMILES: Cn1ncnc1C1c2n[nH]c(=O)c3cc(F)cc(c23)NC1c1ccc(F)cc1 (configuration not stated) + Cc1cncc(-c2nc(NCCc3c[nH]c4ccccc34)c3ncn(C(C)C)c3n2)c1
IC50 [1]: > 100 nM
IC50 [2]: > 100 nM
IC50 [3]: > 100 nM
IC50 [4]: > 100 nM
IC50 [5]: > 100 nM
viability, T/C [6]: 96%
viability, T/C [7]: 96.2%
viability, T/C [8]: 97.4%
viability, T/C [9]: 84.8%
viability, T/C [10]: 86.6%
viability, T/C [11]: 85.6%
viability, T/C [12]: 97.9%
viability, T/C [13]: 92.5%
viability, T/C [14]: 94.3%
viability, T/C [15]: 90.6%
viability, T/C [16]: 85.6%
viability, T/C [17]: 86.5%
viability, T/C [18]: 104%
viability, T/C [19]: 113%
viability, T/C [20]: 104%
viability, T/C [21]: 101%
viability, T/C [22]: 103%
viability, T/C [23]: 94%
viability, T/C [24]: 122%
viability, T/C [25]: 99.5%
viability, T/C [26]: 104%
viability, T/C [27]: 93.7%
viability, T/C [28]: 100%
viability, T/C [29]: 98.2%
viability, T/C [30]: 52.4%
viability, T/C [31]: 55.5%
viability, T/C [32]: 62%
viability, T/C [33]: 56%
viability, T/C [34]: 47.5%
viability, T/C [35]: 58.3%
